According to patent publication US9364405B2, “Tyrosinase inhibitors” (Avon Products, Inc., priority 2013, dated 2016):

Tested on: Mushroom tyrosinase
Assay: Mushroom tyrosinase assay
Assay type: biochemical
Settings: L-Tyrosine substrate, 25° C., 30 min
Method: Mushroom tyrosinase and L-Tyrosine were obtained from Sigma-Aldrich, Inc. (St. Louis, Mo.). The enzyme activity was measured in buffer containing 100 mM phosphate buffer pH 6.8, 5% absolute ethanol, 2 micrograms/milliliter mushroom tyrosinase, and 0.2 mg/ml L-Tyrosine. The reaction (conversion of L-Tyrosine to DOPAchrome) was conducted in triplicates at 25° C. for 30 min, and absorbance was then measured at 492 nm. Kojic Acid was used as a positive control inhibitor in these assays. Percent change in tyrosinase activity relative to vehicle control was calculated.

[1] = test compound concentration 0.0010%

SMILES	Tyrosinase Inhibition (percent change in tyrosinase activity compared to DMSO vehicle control) [1] [%]	Tyrosinase Inhibition (percent change in tyrosinase activity compared to DMSO vehicle control) (test compound concentration 0.0100%) [%]
Cc1cc(C)cc(Nc2nc(-c3ccc(O)cc3O)cs2)c1 [AV4662]	−46	–
CN1CCN(c2nc(-c3ccc(O)cc3O)cs2)CC1 [AV5370]	−75	−59
